Data as given in PubChem BioAssay (NCI).
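48-hour exposure; five concentrations; linearly interpolated endpoints. GI50 is the concentration that inhibits growth by half. Definition used: TGI = concentration required for complete inhibition of growth.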

Tests used:
Test in all cases: DTP human tumour cell line panel, 48 h
NCI-H460 lung = test system: NCI-H460 lung
HOP-92 NSCLC = test system: HOP-92 NSCLC
HCC-2998 colon = test system: HCC-2998 colon
K-562 leukemia = test system: K-562 leukemia
SK-MEL-2 melanoma = test system: SK-MEL-2 melanoma
A549 NSCLC = test system: A549 NSCLC
U251 CNS = test system: U251 CNS
MDA-MB-435 = test system: MDA-MB-435
ACHN renal = test system: ACHN renal
HL-60(TB) leukemia = test system: HL-60(TB) leukemia

Row | Compound | GI50 (NCI-H460 lung) [µM] | TGI (NCI-H460 lung) [µM] | GI50 (HOP-92 NSCLC) [µM] | TGI (HOP-92 NSCLC) [µM] | GI50 (HCC-2998 colon) [µM] | TGI (HCC-2998 colon) [µM] | GI50 (K-562 leukemia) [µM] | TGI (K-562 leukemia) [µM] | GI50 (SK-MEL-2 melanoma) [µM] | TGI (SK-MEL-2 melanoma) [µM] | GI50 (A549 NSCLC) [µM] | TGI (A549 NSCLC) [µM] | GI50 (U251 CNS) [µM] | TGI (U251 CNS) [µM] | GI50 (MDA-MB-435) [µM] | TGI (MDA-MB-435) [µM] | GI50 (ACHN renal) [µM] | TGI (ACHN renal) [µM] | TGI (HL-60(TB) leukemia) [µM] | GI50 (HL-60(TB) leukemia) [µM]
1 | N=C(N)c1ccc(CS(=O)(=O)F)cc1 | > 100 | > 100 | > 100 | > 100 | > 100 | > 100 | > 100 | > 100 | > 100 | > 100 | > 100 | > 100 | > 100 | > 100 | > 100 | > 100 | > 100 | > 100 |  | 
2 | COc1cccc(-c2cc(C(=O)Nc3ccc(Cl)cc3)nc(N)n2)c1 |  | > 100 |  | > 100 |  | > 100 |  | > 100 |  | > 100 |  | > 100 |  | > 100 |  |  |  | > 100 | > 100 | 
3 | Nc1nc(=O)c2[nH]cnc2n1O |  | > 100 |  | > 100 |  |  |  | > 100 |  | > 100 |  | > 100 |  | > 100 |  |  |  | > 100 | > 100 | 
4 | C=C(c1ccc(OC)c(/C=C/C(=O)c2cc(OC)c(OC)c(OC)c2)c1)c1cc(OC)c(OC)c(OC)c1 | 1.44 | 3.54 | 1.14 | 6.9 | 1.84 | 3.37 | 0.922 | 10.7 | 2.58 | 12.4 | 1.81 | 4.51 | 0.773 | 2.12 |  |  | 1.26 | 2.58 | 13.4 | 2.03
5 | OCC(O)C(O)C(O)c1nn[nH]n1 (stereo not drawn) |  | > 100 |  | > 100 |  |  |  | > 100 |  | > 100 |  |  |  | > 100 |  |  |  | > 100 | > 100 | 
6 | CN1C(=O)C(C)(C)NS1(=O)=O |  | > 100 |  |  |  | > 100 |  | > 100 |  | > 100 |  | > 100 |  | > 100 |  |  |  | > 100 | > 100 | 
7 | CCOc1cccc2sc(N)nc12 |  | > 100 |  | > 100 |  | > 100 |  | > 100 |  | > 100 |  | > 100 |  | > 100 |  |  |  | > 100 | > 100 | 
8 | CCOC(=O)NC(=O)c1cn(CC(=O)NCC(=O)NCC(=O)N2CCN(CCn3c(C)nc(C(N)=O)c3N)CC2)c(=O)[nH]c1=O |  | > 100 |  | > 100 |  | > 100 |  | > 100 |  | > 100 |  | > 100 |  | > 100 |  |  |  | > 100 | > 100 | 
9 | CC1(OCc2ccccc2)C(=O)N2C1N(C(=O)OCc1ccccc1)CC2(C)C (stereo not drawn) |  | > 100 |  |  |  | > 100 |  | > 100 |  | > 100 |  | > 100 |  | > 100 |  |  |  | > 100 | 90.5 | 
10 | CN(C(=N)c1ccccc1)c1ccccc1 |  |  |  | > 100 |  | > 100 |  | > 100 |  | > 100 |  | > 100 |  | > 100 |  |  |  |  | > 100 | 
11 | O=C1C2c3[nH]c4ccccc4c3C3CCC(c4ccccc4)CC3C2C(=O)N1c1ccccc1 (stereo not drawn) |  | > 100 |  |  |  | > 100 |  | > 100 |  |  |  | > 100 |  | > 100 |  |  |  | > 100 | 71.1 | 
12 | Clc1cc(Cl)cc(C2SCc3nc4ccccc4n32)c1 (stereo not drawn) |  | 29.3 |  | 47.2 |  |  |  | 25.2 |  | 46.1 |  | 76.1 |  | 34.2 |  |  |  | 69 | 53.4 | 
13 | N#CC1=C(c2ccccc2)NN(Cc2ccccc2)C(c2ccc(Cl)cc2)CC1=O (stereo not drawn) |  | 52.9 |  | 45.1 |  |  |  |  |  | > 100 |  | 62.3 |  | 38.2 |  |  |  | > 100 | 84.6 | 
14 | NC(N)=NS(=O)(=O)c1ccc(NC(=O)c2cccn3c(=O)c4ccccc4nc23)cc1 |  | > 100 |  | > 100 |  | > 100 |  | 90.1 |  |  |  | > 100 |  | > 100 |  |  |  | > 100 | 44.9 | 
15 | O=C1C[C@@H]2[C@@H](C=CC23CC3)N1O |  | > 100 |  |  |  | > 100 |  | > 100 |  | > 100 |  | > 100 |  | > 100 |  |  |  |  | > 100 | 
16 | COc1cccc(-c2cc(=O)c3cc(C)c(C)c(C(=O)O)c3o2)c1 |  | > 100 |  | > 100 |  | > 100 |  | > 100 |  | > 100 |  | > 100 |  | > 100 |  |  |  | > 100 | > 100 | 
17 | CC(C)(C)c1cc(O)c2c(c1O)C(=O)CCC2 |  | > 100 |  | 21.1 |  | > 100 |  | > 100 |  |  |  | > 100 |  | > 100 |  |  |  | > 100 | 43.9 | 
18 | Cc1cc(NCCCNc2ccnc3cc(Cl)ccc23)nc(Nc2ccc(C(=O)N3CCCCC3)cc2)n1 | 2.7 | 7.63 |  |  | 2.47 | 6.65 | 1.98 | 6.4 | 2.17 | 4.29 | 3.56 | 10.4 | 2.25 | 4.92 | 1.71 | 3.2 | 2.85 | 8.23 |  | 
19 | COC(=O)CCC(=O)Nc1cccc(C(F)(F)F)c1 |  | > 100 |  | > 100 |  | > 100 |  | > 100 |  | > 100 |  | > 100 |  | > 100 |  |  |  | > 100 | > 100 | 
20 | COc1cc(-c2nn(-c3ccc(NC(=O)Nc4ccc(Cl)c(C(F)(F)F)c4)cc3)cc2-c2ccncc2)ccc1Cl | 1.71 | 3.62 | 1.82 | 5.85 | 1.64 | 3.1 | 1.59 | 5.58 |  |  | 2.66 | 11.4 | 1.21 | 2.62 | 1.6 | 3.54 | 2.02 | 9.71 |  | 
21 | COc1ccc(C(=C(C#N)C#N)c2ccc(OC)cc2)cc1 |  | > 100 |  |  |  | > 100 |  | > 100 |  | > 100 |  | > 100 |  | > 100 |  |  |  | > 100 | > 100 | 
22 | C=C(c1ccccc1)[C@@]1(O)CCCC[C@H]1NC(c1ccccc1)c1ccccc1 |  | 28 |  | 26.1 |  | 26.1 |  | 29.1 |  | 27.4 |  | 26.2 |  | 24.5 |  |  |  | 23.9 | 5.95 | 
